Assay results reported in patent US20240374692A1, “A NOVEL ACYLATED INSULIN ANALOG” (SUNSHINE LAKE PHARMA CO., LTD., priority 2021, published 2024).

Tested on: normal C57BL/6 mice
Test: Hypoglycemic effect, single subcutaneous administration to normal C57BL/6 mice
Format: in vivo
Parameters: blood glucose: unit not given here
Conditions: for blood glucose: Mean ± SEM, n = 6
Procedure: SPF grade C57BL/6 mice were reared in a suitable rearing box in a barrier environment, with a rearing temperature of 20-26° C., a humidity of 40-70%, a time between day and night of 12 h/12 h, and the mice had free access to standard food and autoclaved sterilization water. After a 3-day quarantine period and a 2-day acclimation period, random blood glucose was measured and mice were weighed. Mice were divided into 6 groups according to random blood glucose and body weight.
Single subcutaneous administration (S.C.) was used to administer the corresponding vehicle or drug. The control group was administered the vehicle PBS without fasting during the whole process, and the animals were allowed to eat and drink freely. Random blood glucose values of C57 mice were measured before administration and at 0.25, 0.5, 1, 2, 4, 6, 8, 10, 24, 48, 54, 72 and 96 hours after administration.
All raw data were entered into Excel files and expressed as Mean±SEM. Statistical analysis of data was performed using Graphpad Prism 7.0 software, one-way or two-way ANOVA comparison method, and P<0.05 was used as the criterion for significant differences.

[1] = single S.C., Degludec 200 nmol/Kg, others 1400 nmol/Kg

Work on “A14E, B16E, B25H, B29K(N(ε)-COOH(CH2)18CO-L-Lys-CO(CH2)2CO—(OEG)2), desB30 human insulin analog [Insulin-a3]” yielded a blood glucose (0 h (before administration), single S.C., Degludec 200 nmol/Kg, others 1400 nmol/Kg) of 8.0 ± 1.0, a blood glucose (0.25 h after single S.C., Degludec 200 nmol/Kg, others 1400 nmol/Kg) of 8.6 ± 1.0 and a blood glucose (0.5 h after single S.C., Degludec 200 nmol/Kg, others 1400 nmol/Kg) of 6.2 ± 0.4. The “blood glucose compared with the control group” value (1 h after single S.C. administration) was “decreased significantly”, the blood glucose (1 h after single S.C., Degludec 200 nmol/Kg, others 1400 nmol/Kg) was 4.9 ± 0.8 and the blood glucose (2 h after single S.C., Degludec 200 nmol/Kg, others 1400 nmol/Kg) was 4.5 ± 1.0. It also gave a blood glucose (4 h after single S.C., Degludec 200 nmol/Kg, others 1400 nmol/Kg) of 3.9 ± 0.7, a blood glucose (6 h after single S.C., Degludec 200 nmol/Kg, others 1400 nmol/Kg) of 3.7 ± 0.5 and a blood glucose (8 h after single S.C., Degludec 200 nmol/Kg, others 1400 nmol/Kg) of 3.8 ± 0.5. For the same substance, the blood glucose (10 h after single S.C., Degludec 200 nmol/Kg, others 1400 nmol/Kg) was 3.5 ± 0.7, the blood glucose (24 h after single S.C., Degludec 200 nmol/Kg, others 1400 nmol/Kg) was 2.9 ± 1.0 and the blood glucose (48 h after single S.C., Degludec 200 nmol/Kg, others 1400 nmol/Kg) was 4.2 ± 2.0. For the same substance, the blood glucose (72 h after single S.C., Degludec 200 nmol/Kg, others 1400 nmol/Kg) was 5.4 ± 2.6, the blood glucose (96 h after single S.C., Degludec 200 nmol/Kg, others 1400 nmol/Kg) was 8.8 ± 1.1 and the “effect on blood glucose control compared with Icodec” value (single S.C. 1400 nmol/Kg) was “slightly worse”. For the same substance, the “effective blood glucose control time” value [1] was 96 h and the “time after administration at which blood glucose reached the lowest level” value [1] was 24 h.
